As usually defined, the EC50 is the concentration that produces a half-maximal response. Lower therefore signals greater potency. For orientation: inhibition means the relative decrease from the control value, in per cent.

Experimental findings from patent publication US10195185B2, “3-(1H-imidazo[4,5-C]pyridin-2-yl)-1H-pyrazolo[4,3-B]pyridines and therapeutic uses thereof” (Samumed, LLC, priority 2015, dated 2019) are described below.

Common to all, as to assay type: cell-based
For assay [1], the system named is Wnt activity (Wnt-responsive human Sp5 promoter, TCF/LEF binding sites) in SW480 colon carcinoma cells. Briefly: Wnt activity screening assay: Sp5-Luc luciferase reporter gene in SW480 cells. The conditions noted are these: for EC50: 10-point dose-response from 10 μM, incubated overnight; for inhibition at 10 µM: given for EC50 of >10 μM, read-out: percent inhibition at 10 μM. An outline of the steps:
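Luminescence read-out (BrightGlo) from stable Sp5-Luc SW480 cells, normalized to DMSO-only wells. Cells were treated overnight at 37° C in 1% FBS medium across a 1:3, 10-point series starting at 10 μM. EC50 from variable-slope four-parameter regression; percent inhibition at 10 μM given where EC50 >10 μM.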
(Reporter assays use an easily measured gene product as a stand-in for the process of interest.)

The test system of a further assay is SW480 colon cancer cells. As to the kind of experiment: Cell viability assay (CellTiter-Blue), four days. The conditions noted are these: Homo sapiens, 96 h; for inhibition at 10 µM: read-out: percent inhibition at 10 μM (given for EC50 of >10 μM); for EC50: CellTiter-Blue cell viability. An outline of the steps: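 4-day exposure, 37 °C/5% CO2; ~2×10^3 SW480 cells/well; 8-pt 1:3 curve, 10–0.0045 μM, duplicates vs DMSO controls. Resazurin→resorufin fluorescence readout, ~3 h. EC50 by nonlinear fit; if >10 μM, % inhibition at 10 μM reported.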
(In general: The colour change of resazurin is a common sign of viable cells or microbes.)

The subject of assay [2] is IL-6 in human monocyte cell line (THP-1 cells). Briefly: IL-6 inhibition in LPS-stimulated THP-1 cells (HTRF). The conditions noted are these: IL-6 in LPS-stimulated THP-1 cells; for EC50: HTRF; for inhibition at 10 µM: read-out: percent inhibition in brackets beside EC50 >10 μM. An outline of the steps:
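Readout is the 665/620 nm HTRF ratio for secreted IL-6, normalized to DMSO wells, with EC50 from a variable-slope four-parameter fit, or % inhibition at 10 μM when above 10 μM. Cells (1% FBS, 24 h beforehand) got compound for 2 h, then LPS 500 ng/mL for 22 h at 37° C; top dose 10 μM, 0.1% DMSO.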

With `CS(=O)(=O)NCc1cc(F)cc(-c2nccc3[nH]c(-c4n[nH]c5ccc(-c6cncnc6)nc45)nc23)c1` [Compound 503, N-(3-Fluoro-5-(2-(5-(pyrimidin-5-yl)-1H-pyrazolo[4,3-b]pyridin-3-yl)-1H-imidazo[4,5-c]pyridin-4-yl)benzyl)methanesulfonamide], the 50% effective concentration (EC50) (in assay [1]; with SW480 colon cancer cells; in assay [2]) was greater than 10 µM in each case. Moreover, the values for the inhibition at 10 µM (in assay [1]; in the assay on SW480 colon cancer cells; in assay [2]) were 18.7%, 0.8% and 40.8%, respectively.

For the compound `Fc1cccc(-c2nccc3[nH]c(-c4n[nH]c5ccc(C6CCNCC6)nc45)nc23)c1` [Compound 505, 3-(4-(3-Fluorophenyl)-1H-imidazo[4,5-c]pyridin-2-yl)-5-(piperidin-4-yl)-1H-pyrazolo[4,3-b]pyridine], the concentration giving a half-maximal response (EC50) (in assay [1]; with SW480 colon cancer cells; in assay [2]) was greater than 10 µM in each case. Also, the inhibition at 10 µM in assay [1] came out at 11.9%; with SW480 colon cancer cells it was 0.4%; in assay [2] it was 9.3%.

Take `Fc1cccc(-c2nccc3[nH]c(-c4n[nH]c5ccc(C6=CCNCC6)nc45)nc23)c1` [Compound 506, 3-(4-(3-Fluorophenyl)-1H-imidazo[4,5-c]pyridin-2-yl)-5-(1,2,3,6-tetrahydropyridin-4-yl)-1H-pyrazolo[4,3-b]pyridine]: the half-maximal effective concentration (EC50) (in assay [1]; with SW480 colon cancer cells; in assay [2]) was greater than 10 µM throughout. In addition, the inhibition at 10 µM came out at 17.6% in assay [1], 0% in the assay with SW480 colon cancer cells and 34.6% in assay [2].

As for `Fc1cccc(-c2nccc3[nH]c(-c4n[nH]c5ccc(-c6cn[nH]c6)nc45)nc23)c1` [Compound 507, 3-(4-(3-Fluorophenyl)-1H-imidazo[4,5-c]pyridin-2-yl)-5-(1H-pyrazol-4-yl)-1H-pyrazolo[4,3-b]pyridine], the concentration giving a half-maximal response (EC50) (in assay [1]; in the assay with SW480 colon cancer cells; in assay [2]) was greater than 10 µM in each case. Besides, the results for the inhibition at 10 µM in assay [1] and in assay [2] were 15% and 0%, respectively.

For the compound `Cn1cc(-c2ccc3[nH]nc(-c4nc5c(-c6cccc(F)c6)nccc5[nH]4)c3n2)cn1` [Compound 508, 3-(4-(3-Fluorophenyl)-1H-imidazo[4,5-c]pyridin-2-yl)-5-(1-methyl-1H-pyrazol-4-yl)-1H-pyrazolo[4,3-b]pyridine], the half-maximal effective concentration (EC50) is 0.115 µM in assay [1], 2.2 µM in the assay with SW480 colon cancer cells and greater than 10 µM in assay [2]. Besides, in assay [2], the inhibition at 10 µM was determined as 0%.

In the case of `NC1CN(c2cncc(-c3ccc4[nH]nc(-c5nc6c(-c7cccc(F)c7)nccc6[nH]5)c4n3)n2)C1` [Compound 510, 1-(6-(3-(4-(3-Fluorophenyl)-1H-imidazo[4,5-c]pyridin-2-yl)-1H-pyrazolo [4,3-b]pyridin-5-yl)pyrazin-2-yl)azetidin-3-amine], the half-maximal effective concentration (EC50) in assay [1] was greater than 10 µM; in the assay on SW480 colon cancer cells it was 9.29 µM; in assay [2], greater than 10 µM. Moreover, the values for the inhibition at 10 µM in assay [1] and in assay [2] were 16.3% and 9.4%, respectively.

With `Fc1cccc(-c2nccc3[nH]c(-c4n[nH]c5ccc(-c6cncc(OCCN7CCCC7)c6)nc45)nc23)c1` [Compound 514, 3-(4-(3-Fluorophenyl)-1H-imidazo[4,5-c]pyridin-2-yl)-5-(5-(2-(pyrrolidin-1-yl)ethoxy)pyridin-3-yl)-1H-pyrazolo[4,3-b]pyridine], the EC50 in assay [1] is 2.45 µM; with SW480 colon cancer cells it was 3.43 µM; in assay [2], greater than 10 µM. The inhibition at 10 µM in assay [2] was 47.8%.

As for `CN(C)CCOc1cncc(-c2ccc3[nH]nc(-c4nc5c(-c6cccc(F)c6)nccc5[nH]4)c3n2)c1` [Compound 515, 2-((5-(3-(4-(3-Fluorophenyl)-1H-imidazo[4,5-c]pyridin-2-yl)-1H-pyrazolo [4,3-b]pyridin-5-yl)pyridin-3-yl)oxy)-N,N-dimethylethan-1-amine], the values for the EC50 (in assay [1]; in the assay with SW480 colon cancer cells; in assay [2]) were 3.48 µM, 1.61 µM and 3.57 µM, respectively.

With `COc1cncc(-c2ccc3[nH]nc(-c4nc5c(-c6cccc(F)c6)nccc5[nH]4)c3n2)c1` [Compound 516, 3-(4-(3-Fluorophenyl)-1H-imidazo[4,5-c]pyridin-2-yl)-5-(5-methoxypyridin-3-yl)-1H-pyrazolo[4,3-b]pyridine], the EC50 in assay [1] was 1.28 µM; in the assay on SW480 colon cancer cells, 0.322 µM; in assay [2], greater than 10 µM. The inhibition at 10 µM in assay [2] was found to be 25.1%.

Regarding `Oc1cncc(-c2ccc3[nH]nc(-c4nc5c(-c6cccc(F)c6)nccc5[nH]4)c3n2)c1` [Compound 517, 5-(3-(4-(3-Fluorophenyl)-1H-imidazo[4,5-c]pyridin-2-yl)-1H-pyrazolo[4,3-b]pyridin-5-yl)pyridin-3-ol], the EC50 in assay [1] was 0.523 µM; in the assay with SW480 colon cancer cells, greater than 10 µM; in assay [2] it was greater than 10 µM. Besides, the inhibition at 10 µM in the assay on SW480 colon cancer cells worked out at 3.5%; in assay [2] it was 54.4%.

Take `Fc1cccc(-c2nccc3[nH]c(-c4n[nH]c5ccc(-c6cnccn6)nc45)nc23)c1` [Compound 520, 3-(4-(3-Fluorophenyl)-1H-imidazo[4,5-c]pyridin-2-yl)-5-(pyrazin-2-yl)-1H-pyrazolo[4,3-b]pyridine]: the concentration for a half-maximal effect (EC50) (in assay [1]; in the assay with SW480 colon cancer cells; in assay [2]) was greater than 10 µM throughout. In addition, the inhibition at 10 µM was determined as 12.2% in assay [1], 6.6% in the assay on SW480 colon cancer cells and 29.4% in assay [2].

For the compound `c1cncc(-c2nccc3[nH]c(-c4n[nH]c5ccc(-c6cncc(OC7CCCCC7)c6)nc45)nc23)c1` [Compound 559, 5-(5-(Cyclohexyloxy)pyridin-3-yl)-3-(4-(pyridin-3-yl)-1H-imidazo[4,5-c]pyridin-2-yl)-1H-pyrazolo[4,3-b]pyridine], the results for the EC50 (in assay [1]; in the assay on SW480 colon cancer cells; in assay [2]) were 3.25 µM, greater than 10 µM and greater than 10 µM, respectively. In addition, the inhibition at 10 µM with SW480 colon cancer cells came out at 18%; in assay [2], 42.7%.

As for `Oc1cncc(-c2ccc3[nH]nc(-c4nc5c(-c6cccnc6)nccc5[nH]4)c3n2)c1` [Compound 565, 5-(3-(4-(Pyridin-3-yl)-1H-imidazo[4,5-c]pyridin-2-yl)-1H-pyrazolo[4,3-b]pyridin-5-yl)pyridin-3-ol], the EC50 was 0.456 µM in assay [1], greater than 10 µM in the assay with SW480 colon cancer cells and 3.1 µM in assay [2]. In addition, in the assay on SW480 colon cancer cells, the inhibition at 10 µM worked out at 32.7%.

As to `c1cc(-c2nccc3[nH]c(-c4n[nH]c5ccc(-c6cncc(OC7CCNCC7)c6)nc45)nc23)ccn1` [Compound 576, 5-(5-(Piperidin-4-yloxy)pyridin-3-yl)-3-(4-(pyridin-4-yl)-1H-imidazo[4,5-c]pyridin-2-yl)-1H-pyrazolo[4,3-b]pyridine], the concentration giving a half-maximal response (EC50) (in assay [1]; with SW480 colon cancer cells; in assay [2]) was greater than 10 µM in each case. Further, the inhibition at 10 µM in assay [1] came to 17.9%; in the assay on SW480 colon cancer cells, 24.6%; in assay [2], 22.3%.

In the case of `c1ccc(COc2cncc(-c3ccc4[nH]nc(-c5nc6c(-c7ccncc7)nccc6[nH]5)c4n3)c2)cc1` [Compound 582, 5-(5-(Benzyloxy)pyridin-3-yl)-3-(4-(pyridin-4-yl)-1H-imidazo[4,5-c]pyridin-2-yl)-1H-pyrazolo[4,3-b]pyridine], the EC50 (in assay [1]; in the assay on SW480 colon cancer cells; in assay [2]) was greater than 10 µM in each case. Besides, the inhibition at 10 µM in assay [1] was determined as 18.1%; with SW480 colon cancer cells it was 10.9%; in assay [2], 8.3%.

Regarding `c1cc(-c2nccc3[nH]c(-c4n[nH]c5ccc(-c6cnccn6)nc45)nc23)ccn1` [Compound 584, 5-(Pyrazin-2-yl)-3-(4-(pyridin-4-yl)-1H-imidazo[4,5-c]pyridin-2-yl)-1H-pyrazolo[4,3-b]pyridine], the EC50 (in assay [1]; in the assay on SW480 colon cancer cells; in assay [2]) was greater than 10 µM throughout. The inhibition at 10 µM was 5.7% in assay [1], 2.1% in the assay on SW480 colon cancer cells and 32.2% in assay [2].

As for `O=C(CC1CCNCC1)Nc1cncc(-c2ccc3[nH]nc(-c4nc5c(-c6ccccn6)nccc5[nH]4)c3n2)c1` [Compound 593, 2-(Piperidin-4-yl)-N-(5-(3-(4-(pyri-2-yl)-1H-imidazo[4,5-c]pyridin-2-yl)-1H-pyrazolo[4,3-b]pyridin-5-yl)pyridin-3-yl)acetamide], the EC50 (in assay [1]; with SW480 colon cancer cells; in assay [2]) was greater than 10 µM throughout. Moreover, the inhibition at 10 µM in assay [1] came to 31.4%; with SW480 colon cancer cells, 9.1%; in assay [2] it was 32.5%.

Turning to `c1cc2[nH]c(-c3n[nH]c4ccc(-c5cncc(OCCN6CCCC6)c5)nc34)nc2c(N2CCCCC2)n1` [Compound 610, 3-(4-(Piperidin-1-yl)-1H-imidazo[4,5-c]pyridin-2-yl)-5-(5-(2-(pyrrolidin-1-yl)ethoxy)pyridin-3-yl)-1H-pyrazolo[4,3-b]pyridine], the concentration for a half-maximal effect (EC50) in assay [1] is greater than 10 µM; in the assay on SW480 colon cancer cells it was 9.87 µM; in assay [2], greater than 10 µM. The inhibition at 10 µM in assay [1] stood at 46.2%; in assay [2] it was 34.9%.
